Test results reported in ChEMBL document CHEMBL1221220, “Transport and signaling via the amino acid binding site of the yeast Gap1 amino acid transceptor” (Nat Chem Biol, 2009).
Residue numbers refer to the chain shown, from its start. Calls of active or inactive are those of the source. The rule behind the calls is not given here.

Legend:
[1] = tested on: T1, General amino-acid permease GAP1 (Saccharomyces cerevisiae), P19145 [R399C]; test: Activation of yeast Gap1 R399C mutant-mediated amino acid uptake at 10 mM
T1 sequence (whole entry): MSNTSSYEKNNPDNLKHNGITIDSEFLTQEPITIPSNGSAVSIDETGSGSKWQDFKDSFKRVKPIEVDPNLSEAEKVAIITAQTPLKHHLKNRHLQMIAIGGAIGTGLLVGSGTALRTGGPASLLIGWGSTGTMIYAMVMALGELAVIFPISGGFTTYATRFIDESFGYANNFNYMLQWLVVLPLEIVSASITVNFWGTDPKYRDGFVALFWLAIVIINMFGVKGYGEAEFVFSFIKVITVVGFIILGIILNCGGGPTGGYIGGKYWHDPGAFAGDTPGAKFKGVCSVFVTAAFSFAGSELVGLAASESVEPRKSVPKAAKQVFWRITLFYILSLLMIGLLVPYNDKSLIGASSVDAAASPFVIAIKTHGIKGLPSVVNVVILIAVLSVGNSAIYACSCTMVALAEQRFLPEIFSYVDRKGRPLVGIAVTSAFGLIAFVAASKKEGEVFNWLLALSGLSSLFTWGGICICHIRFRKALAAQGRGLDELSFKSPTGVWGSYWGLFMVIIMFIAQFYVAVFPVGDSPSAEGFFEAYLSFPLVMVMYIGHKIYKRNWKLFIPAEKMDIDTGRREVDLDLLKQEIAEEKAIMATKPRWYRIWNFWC

[2] = target: T2, General amino-acid permease GAP1 (Saccharomyces cerevisiae) (UniProt P19145); test: Induction of nitrogen-starved wild type sigma1278b yeast Gap1-mediated trehalase activation at 2 mM in presence of 10 mM MTSEA treated before compound addition
T2 sequence (whole entry): T1 sequence (whole entry) with C399R

[3] = tested on: General amino-acid permease GAP1 (Saccharomyces cerevisiae), P19145 [V389C]; test: Induction of yeast Gap1 V389C mutant-mediated trehalose activation at 2 mM in presence of 10 mM MTSEA treated before compound addition
[4] = tested on: T3, General amino-acid permease GAP1 (Saccharomyces cerevisiae), P19145 [V381C]; test: Induction of yeast Gap1 V381C mutant-mediated amino acid uptake at 2 mM in presence of 10 mM MTSEA treated before compound addition
T3 sequence (whole entry): T1 sequence (whole entry) with V381C, C399R

[5] = tested on: T4, General amino-acid permease GAP1 (Saccharomyces cerevisiae), P19145 [T400C]; test: Induction of yeast Gap1 T400C mutant-mediated amino acid uptake at 2 mM in presence of 10 mM MTSEA treated before compound addition
T4 sequence (whole entry): T1 sequence (whole entry) with C399R, T400C

Chain of General amino-acid permease GAP1 (Saccharomyces cerevisiae), P19145 [V389C] (P19145 whole entry V389C): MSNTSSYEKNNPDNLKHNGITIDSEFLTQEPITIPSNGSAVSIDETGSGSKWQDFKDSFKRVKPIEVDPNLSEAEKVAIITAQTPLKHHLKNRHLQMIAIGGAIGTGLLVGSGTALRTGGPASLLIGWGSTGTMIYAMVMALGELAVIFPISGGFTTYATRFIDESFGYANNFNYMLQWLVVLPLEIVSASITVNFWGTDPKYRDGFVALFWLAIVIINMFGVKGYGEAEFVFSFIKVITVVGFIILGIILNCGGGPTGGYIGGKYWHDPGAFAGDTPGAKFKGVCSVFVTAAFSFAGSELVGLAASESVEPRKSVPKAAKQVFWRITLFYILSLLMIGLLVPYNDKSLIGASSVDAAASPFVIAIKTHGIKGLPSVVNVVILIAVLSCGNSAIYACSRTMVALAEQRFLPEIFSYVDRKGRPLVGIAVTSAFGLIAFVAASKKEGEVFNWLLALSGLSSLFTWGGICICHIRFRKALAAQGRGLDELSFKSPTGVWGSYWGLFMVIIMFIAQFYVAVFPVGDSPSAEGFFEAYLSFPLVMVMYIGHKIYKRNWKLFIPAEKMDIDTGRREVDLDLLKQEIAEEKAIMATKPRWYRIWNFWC

NC(=O)NCCC[C@H](N)C(=O)O
Activity [1]: inactive | inhibition [2]: Active | inhibition [3]: inactive | Activity [4]: Active | Activity [5]: Active
